Assay results from the NIST ThermoML archive (doi:10.1016/j.tca.2015.06.020).
± gives the expanded uncertainty stated by the source.

Conditions: Crystal; DTA

Q: For `COc1ccc([N+](=O)[O-])c(-n2ccnn2)c1[N+](=O)[O-]` [1-(3-methoxy-2,6-dinitrophenyl)-1H-1,2,3-triazole], which Normal melting temperature is on record?
A: 168.96 ± 3 °C

Q: For `COc1c([N+](=O)[O-])cc(Cn2ccnn2)cc1[N+](=O)[O-]` [1-(4-methoxy-3,5-dinitrobenzyl)-1H-1,2,3-triazole], which Normal melting temperature is on record?
A: 90.13 ± 3 °C
